# Assay results: paper PMC9413491, “A Novel and Cross-Species Active Mammalian INDY (NaCT) Inhibitor Ameliorates Hepatic Steatosis in Mice with Diet-Induced Obesity” (Metabolites, 2022)
# What was measured:
# [1] = molecular target: T1, human NaDC3 (SLC13A3) (Homo sapiens, UniProt Q8WWT9); assay: [14C] succinate uptake in HEK293 cells overexpressing human NaDC3; format: cell-based
# T1 construct: expressed in transfected cells; host or cells: HEK293 (HEK-NaDC3), hygromycin selection
# T1 sequence (Q8WWT9 1-602): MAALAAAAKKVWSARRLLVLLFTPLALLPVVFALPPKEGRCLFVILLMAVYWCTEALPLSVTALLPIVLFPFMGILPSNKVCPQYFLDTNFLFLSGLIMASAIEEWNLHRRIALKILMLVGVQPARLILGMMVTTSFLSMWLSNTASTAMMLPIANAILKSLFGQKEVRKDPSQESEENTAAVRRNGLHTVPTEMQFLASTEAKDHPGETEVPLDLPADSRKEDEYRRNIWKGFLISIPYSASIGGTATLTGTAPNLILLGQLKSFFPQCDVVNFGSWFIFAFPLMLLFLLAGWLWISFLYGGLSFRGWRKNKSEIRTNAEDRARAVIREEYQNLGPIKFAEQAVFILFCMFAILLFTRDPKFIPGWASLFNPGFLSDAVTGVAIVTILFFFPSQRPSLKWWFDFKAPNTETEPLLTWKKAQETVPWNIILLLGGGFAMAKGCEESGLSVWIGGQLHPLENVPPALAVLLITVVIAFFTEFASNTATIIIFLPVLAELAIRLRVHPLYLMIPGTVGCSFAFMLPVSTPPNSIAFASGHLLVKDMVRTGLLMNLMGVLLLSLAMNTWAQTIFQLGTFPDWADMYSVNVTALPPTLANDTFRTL
# Text: We obtained the compound by screening a library containing more than 50,000 highly diverse lead-like compounds from the Evotec Discovery Library (Evotec SE) and progressing initial hit-through-hit expansion and hit-to-lead optimisation phases. Compound library details are described under https://www.evotec.com/en/execute/drug-discovery-services/hit-identification (accessed on 5 August 2022). We used [14C] citrate uptake assays with HEK293 cells overexpressing recombinant human NaCT (HEK-NaCT). For confirmation, we measured citrate uptake using HepG2 cells which endogenously express NaCT. Furthermore, we measured activity on mouse Nact in a similar assay system using HEK293 cells recombinantly expressing murine Nact (HEK-Nact). We then tested the selectivity of selected compounds with another transporter of the same family—NaDC3. Selectivity was determined by a succinate uptake assay for NaDC3 using HepG2 cells or using HEK293 cells overexpressing recombinant human NaDC3.
# For radiometric [14C] succinate uptake assays, we applied HEK cells overexpressing human NaDC3 and measured according to the procedure described previously, with a modified incubation buffer of HBSS buffer, supplemented with 20 mM HEPES, pH 7.4 and positive control 2,2-Dimethylsuccinic acid (Sigma-Aldrich, St. Louis, MO, USA).
# [2] = test system: DIO mice; assay: 7-day treatment of diet-induced obesity (DIO) mice; format: in vivo, mouse; conditions: 15 mg/kg twice daily, 7 days
# Experimental: We performed in vivo testing in DIO mice (for 7- and 28-day treatment), an established model designed to study high-fat-diet-induced hepatic steatosis and associated cardiometabolic traits. We established DIO in four-week-old C57BL/6N male mice that were fed a high-fat diet (HFD, 60 kcal% fat, D12492; Research Diets, Inc.; New Brunswick, NJ, USA) until 11 weeks of age.
# Mice were housed at a temperature of 22–24 °C, with a day/night cycle of 12/12 h (07:00-19:00–07:00) and had access to the appropriate diet and tap water ad libitum. Animals allocated to the pair-feeding group were fed the same amount of food as the corresponding treatment group had consumed the day before. Food was only withdrawn for overnight fasting on the penultimate study day before the section on the final day. We randomised groups of n = 12 for treatment and n = 8 for pair-feeding cage-wise according to random fed blood glucose levels and body weight before the study treatment was started. For all animals, the high-fat diet was started at the same age.
# We treated DIO mice with the inhibitor or corresponding vehicle (5% DMSO/10% Cremophor® EL/85% water) twice a day at the same time by oral gavage according to their grouping (5, 15, and 50 mg/kg dose groups, and vehicle control groups). During the study, we measured body weight and blood glucose. We measured glucose concentrations in tail tip blood samples with the “Accu-Chek® Performa” glucometer (Roche, Basel, Switzerland, range <33.3 mmol/L). We determined random fed blood glucose and fasting blood glucose after overnight fasting.
# We determined serum beta-hydroxybutyrate with a Beta-Hydroxybutyrate Assay kit, (Sigma-Aldrich, Cat.No. MAK041, St. Louis, MO, USA) following the manufacturer’s instructions. The sample was undiluted, and the volume was 5 µL.
# We performed Western blots as described previously. Deviating from that protocol samples were heated for 5 min at 95 °C and blotting time was 1 h at 20 volts. For target protein detection, AMPK alpha (D63G4) Rabbit mAb (Cell Signaling Technology, Inc., Danvers, MA, USA; Cat. No. #5832/3; working dilution 1:1000) and Phospho-AMPK alpha (Thr172) (40H9) Rabbit mAb (Cell Signaling Technology, Inc.; Cat. No. #2535/16; working dilution 1:1000) were used; gel loading was controlled by anti-beta-actin (Sigma-Aldrich, Cat. No. A2228). We detected signals with the SuperSignal West Dura Extended Duration Substrate (Thermo Fisher Scientific; Cat. No. 34076, Waltham, MA, USA).
# [3] = Blood-brain barrier penetration: brain versus liver concentrations; format: in vivo; conditions: brain vs liver
# [4] = test system: DIO mice; assay: Short-term tolerability studies in the DIO mouse model; format: in vivo
# Text: Next, we tested the functional activity of ETG-5773 in vivo to establish whether the effects on in vitro citrate uptake and FAS were physiologically relevant. […] Therefore, we applied pair-fed control groups to explore the pharmacological actions on metabolism without interference from food-intake effects.
# […] […] The potential for off-target effects on feeding behaviour provided the rational for including pair-fed control groups.
# [5] = test system: DIO mice; assay: 7-day treatment of diet-induced obesity (DIO) mice; format: in vivo, mouse; conditions: 15 mg/kg twice daily, 7 days, p < 0.001 pair-fed, p < 0.05 vehicle
smiles,measurement,setting,value
O=C(Nc1cc(Cl)cc(C(F)(F)F)c1)OCCC(F)(F)F [ETG-5773],IC50,"[1]; HEK293 overexpressing human NaDC3, succinate substrate",> 20 µM
same,Selectivity for NaCT against NaDC3,[1]; NaCT citrate uptake vs NaDC3 succinate uptake,more than 100 fold
same,Liver fat after seven-days treatment,[2],not sufficient to significantly reduce liver fat
same,Ratio of phosphorylated AMPK to total AMPK in liver vs both control groups,"[2]; Western blot, p < 0.01",AMPK activation
same,HOMA-IR change vs vehicle,"[2]; numerically reduced, p = 0.24",−95%
same,Fasting serum insulin change vs vehicle,"[2]; numerically reduced, p = 0.4",−91%
same,Body weight change vs vehicle control,[2]; p < 0.0001,−15%
same,Fasting blood glucose change vs vehicle,[2]; p < 0.0001,−45%
same,Reduction in fasting blood glucose vs pair-fed vehicle control,[2]; p < 0.0001,36%
same,Reduction in HOMA-IR vs pair-fed vehicle control,[2]; p < 0.05,> 95%
same,Reduction in fasting serum insulin vs pair-fed vehicle control,[2]; p < 0.05,> 95%
same,Concentration in brain relative to liver (lower),[3],30 fold
same,Tolerability of the selected dose,[4]; 15 mg/kg twice daily,well tolerated
same,Food intake,"[4]; preliminary short-term tolerability studies, DIO mouse model",reduced food intake
same,Plasma β-hydroxybutyrate (β-HBA) concentrations vs pair-fed and vehicle,[5],significantly increased
